The source of these data is patent publication US11819549B2, “Pharmaceutical formulation comprising ciclesonide” (Boehringer Ingelheim Vetmedica GmbH, priority 2012, dated 2023).

The conditions of data set [1]: taken orally; cited from earlier work.
Data set [2] in a line: buffering capacity of ciclesonide in the ethanolic solution. The data set is classed as physicochemical. Particulars: ethanol/water solution acidified with HCl 0.1 M. The procedure:
More HCl is added than needed to achieve […] in demineralized water alone due to the buffering capacity of ciclesonide.

Data set [3] in a line: chemical stability of ciclesonide in ethanolic formulation as a function of pHapp. The conditions noted are these: pHapp range of 4.0 to 4.6, no buffer. The data set is classed as physicochemical. An excerpt: To identify an appropriate pHapp in an ethanolic liquid formulation comprising ciclesonide is a challenge. On the one hand side the stability of ciclesonide is better at higher (more neutral) pH values. However, on the other hand, the pH should not be too high since at low [H^+] values already small amounts of contaminants and decomposition products can cause a relatively large change in pHapp. Furthermore, the use of a buffer for inhalable formulations is undesirable due to the administration of the buffer constituents to the lungs and the possibility of the buffer constituents forming a residue in the inhaler which may affect the spray characteristics of the aerosol. […] The addition of buffer is not necessary to create the advantageous formulation of the present invention.

For dexamethasone, in data set [1], the “potency relative to cortisol” value is listed as 27 times and the “potency relative to prednisone” value is listed as 7 times.

Turning to `CC(C)C(=O)OCC(=O)C12OC(C3CCCCC3)OC1CC1C3CCC4=CC(=O)C=CC4(C)C3C(O)CC12C` [ciclesonide, (11β,16α)-16,17-[[(R)-Cyclohexylmethylene]bis(oxy)]-11-hydroxy-21-(2-methyl-1-oxopropoxy)pregna-1,4-diene-3,20-dione], in data set [2], the buffering capacity was −3.6 μmol/g ciclesonide. In addition, the “chemical stability of ciclesonide” value in data set [3] was “chemically stable”.
